Key:
Type in all cases: biochemical
c-Met = c-Met (Homo sapiens, UniProt P08581); assay: c-Met Inhibition Assay, coupled enzyme system; settings: enzyme inhibition data (Ki), Table 11
In short: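 Pyruvate kinase/lactate dehydrogenase-coupled NADH assay in HEPES pH 7.5 with 80 nM c-Met, 200 μM ATP and 10 μM polyGluTyr at 30° C. Compound (0.006–12.5 μM final, 12-point) preincubated 10 min before ATP start; rates over 10 min gave Ki.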

JAK3 = target: T1, JAK3 (Homo sapiens, UniProt P52333); assay: JAK3 Inhibition Assay, 33P incorporation; settings: enzyme inhibition data (Ki), Table 11
T1 sequence (P52333 1-1124): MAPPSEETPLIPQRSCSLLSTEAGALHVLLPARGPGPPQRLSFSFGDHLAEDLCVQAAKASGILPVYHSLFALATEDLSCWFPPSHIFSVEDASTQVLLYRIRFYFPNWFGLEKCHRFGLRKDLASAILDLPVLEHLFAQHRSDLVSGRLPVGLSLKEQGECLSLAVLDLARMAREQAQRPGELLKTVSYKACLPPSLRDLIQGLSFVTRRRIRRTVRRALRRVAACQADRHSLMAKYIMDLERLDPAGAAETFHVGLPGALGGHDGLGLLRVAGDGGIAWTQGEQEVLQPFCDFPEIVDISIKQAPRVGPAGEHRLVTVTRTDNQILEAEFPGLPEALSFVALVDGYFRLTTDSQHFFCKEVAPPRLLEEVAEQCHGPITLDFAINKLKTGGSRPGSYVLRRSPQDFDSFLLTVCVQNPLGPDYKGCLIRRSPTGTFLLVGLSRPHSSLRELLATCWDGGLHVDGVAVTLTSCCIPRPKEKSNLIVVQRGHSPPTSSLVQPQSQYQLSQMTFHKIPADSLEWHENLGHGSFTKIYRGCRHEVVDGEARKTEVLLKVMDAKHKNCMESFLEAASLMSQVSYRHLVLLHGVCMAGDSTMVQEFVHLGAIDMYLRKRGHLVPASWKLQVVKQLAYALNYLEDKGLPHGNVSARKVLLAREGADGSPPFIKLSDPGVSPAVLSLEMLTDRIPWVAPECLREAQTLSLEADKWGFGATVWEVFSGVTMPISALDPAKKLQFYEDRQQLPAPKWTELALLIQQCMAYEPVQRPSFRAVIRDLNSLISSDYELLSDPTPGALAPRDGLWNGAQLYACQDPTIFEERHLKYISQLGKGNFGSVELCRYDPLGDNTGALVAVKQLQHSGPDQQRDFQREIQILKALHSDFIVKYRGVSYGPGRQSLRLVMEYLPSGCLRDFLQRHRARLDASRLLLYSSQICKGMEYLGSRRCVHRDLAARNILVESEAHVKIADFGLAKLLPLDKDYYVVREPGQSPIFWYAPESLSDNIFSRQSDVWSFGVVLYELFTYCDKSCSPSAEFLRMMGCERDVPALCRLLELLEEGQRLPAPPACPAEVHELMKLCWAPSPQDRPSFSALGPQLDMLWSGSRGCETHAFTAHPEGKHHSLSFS
In short: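 Recombinant JAK3 at 1 nM in HEPES pH 7.4 buffer with 10 mM MgCl2, 1 mM DTT and 0.01% BSA. Substrates were 5 μM ATP (200 uCi/μmole) and 1 μM poly(Glu)4Tyr, reacted 20 min at 25 °C. Stopped with TCA, and 33P incorporation counted on glass fiber filters.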

Itk = target: T2, Itk (Homo sapiens, UniProt Q08881); assay: ITK Inhibition Assay (Radiometric), radioactive-phosphate incorporation; settings: enzyme inhibition data (Ki), Table 11; radiometric or UV assay not stated
T2 sequence (Q08881 1-620): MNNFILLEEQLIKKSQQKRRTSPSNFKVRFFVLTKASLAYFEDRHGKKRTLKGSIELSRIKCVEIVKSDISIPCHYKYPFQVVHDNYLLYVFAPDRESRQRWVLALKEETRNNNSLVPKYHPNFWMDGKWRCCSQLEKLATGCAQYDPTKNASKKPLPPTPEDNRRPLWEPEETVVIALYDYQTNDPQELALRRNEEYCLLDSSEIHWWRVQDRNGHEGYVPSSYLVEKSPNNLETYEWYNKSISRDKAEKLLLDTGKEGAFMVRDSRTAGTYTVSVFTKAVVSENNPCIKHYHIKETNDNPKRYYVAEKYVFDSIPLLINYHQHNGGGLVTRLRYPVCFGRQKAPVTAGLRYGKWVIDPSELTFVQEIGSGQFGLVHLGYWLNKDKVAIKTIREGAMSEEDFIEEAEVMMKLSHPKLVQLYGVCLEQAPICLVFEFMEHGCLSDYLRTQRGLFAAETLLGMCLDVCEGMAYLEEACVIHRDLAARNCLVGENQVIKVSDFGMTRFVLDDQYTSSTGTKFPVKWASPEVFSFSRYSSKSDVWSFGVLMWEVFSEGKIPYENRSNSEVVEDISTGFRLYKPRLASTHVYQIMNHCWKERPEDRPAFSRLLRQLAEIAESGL
In short: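 Radiometric 33P incorporation into SAM68 peptide (D332-443) with filter capture and scintillation counting; 10 min pre-incubation then 10 min reaction at 25° C. IC50 format: 30 nM Itk, 15 μM ATP, 2 μM peptide, HEPES pH 7.5. Ki(app) format: 50 nM Itk, 7.5 μM ATP, 3 μM peptide, MOPS pH 7.0.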

Sequence of c-Met (P08581 25-1390): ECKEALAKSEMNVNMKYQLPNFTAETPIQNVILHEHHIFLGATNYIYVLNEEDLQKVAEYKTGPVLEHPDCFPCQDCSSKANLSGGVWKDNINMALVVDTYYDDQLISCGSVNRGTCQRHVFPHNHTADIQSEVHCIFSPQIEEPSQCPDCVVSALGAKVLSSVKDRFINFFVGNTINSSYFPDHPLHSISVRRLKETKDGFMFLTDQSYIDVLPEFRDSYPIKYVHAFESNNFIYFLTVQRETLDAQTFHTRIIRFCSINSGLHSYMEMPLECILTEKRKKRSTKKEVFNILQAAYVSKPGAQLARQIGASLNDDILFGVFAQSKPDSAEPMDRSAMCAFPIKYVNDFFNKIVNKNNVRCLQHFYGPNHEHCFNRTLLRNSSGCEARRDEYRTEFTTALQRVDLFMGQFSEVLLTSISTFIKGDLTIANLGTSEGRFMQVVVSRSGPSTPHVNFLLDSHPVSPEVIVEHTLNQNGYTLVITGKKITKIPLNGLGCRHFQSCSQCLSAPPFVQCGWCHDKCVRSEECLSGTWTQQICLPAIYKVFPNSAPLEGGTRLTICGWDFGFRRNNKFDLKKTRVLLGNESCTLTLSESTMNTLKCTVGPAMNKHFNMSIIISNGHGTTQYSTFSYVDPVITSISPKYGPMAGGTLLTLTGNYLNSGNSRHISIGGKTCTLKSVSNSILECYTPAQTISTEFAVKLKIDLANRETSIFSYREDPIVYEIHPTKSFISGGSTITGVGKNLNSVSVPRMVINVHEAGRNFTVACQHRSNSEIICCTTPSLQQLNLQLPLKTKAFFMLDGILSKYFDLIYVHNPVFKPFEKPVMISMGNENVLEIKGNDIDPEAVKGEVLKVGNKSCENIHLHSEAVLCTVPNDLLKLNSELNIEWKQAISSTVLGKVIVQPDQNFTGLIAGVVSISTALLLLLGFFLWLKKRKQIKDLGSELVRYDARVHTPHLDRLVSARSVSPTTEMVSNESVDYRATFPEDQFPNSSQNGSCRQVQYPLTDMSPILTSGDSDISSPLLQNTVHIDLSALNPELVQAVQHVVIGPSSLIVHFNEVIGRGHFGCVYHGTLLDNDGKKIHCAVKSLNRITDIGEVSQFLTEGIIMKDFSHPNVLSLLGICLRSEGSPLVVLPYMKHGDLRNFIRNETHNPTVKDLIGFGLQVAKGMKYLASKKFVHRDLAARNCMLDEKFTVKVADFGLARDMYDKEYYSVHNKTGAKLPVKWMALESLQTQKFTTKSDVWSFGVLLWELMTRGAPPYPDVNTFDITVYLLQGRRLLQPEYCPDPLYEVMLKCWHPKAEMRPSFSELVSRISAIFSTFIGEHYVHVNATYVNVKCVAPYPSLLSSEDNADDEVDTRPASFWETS

Row | Compound | Ki (c-Met) | Ki (JAK3) | Ki (Itk)
1 | CN(C)CCN(C)C(=O)c1ccc(-c2cnc3c(Cc4ccccc4)c(N)nn3c2)nc1 [Compound V-211] | 0.5 to 5 µM | > 5 µM | 0.5 to 5 µM
2 | C[C@@H](CO)NCCCc1cnc2c(-c3ccccn3)c(N)nn2c1 [Compound V-326] | 0.5 to 5 µM | > 5 µM | 0.5 to 5 µM
3 | CN(CCc1ccccn1)c1ccc(-c2cnc3c(-c4ccccn4)c(N)nn3c2)cn1 [Compound V-168] | 0.5 to 5 µM | > 5 µM | 0.5 to 5 µM
4 | Cc1cnc2c(-c3cc(N4CCC[C@H]4CN4CCCC4)ncn3)c(N)nn2c1 [Compound V-305] | 0.5 to 5 µM | > 5 µM | 0.5 to 5 µM
5 | Nc1nn2cc(-c3ccccc3[N+](=O)[O-])cnc2c1-c1ccccn1 [Compound V-21] | 0.5 to 5 µM | > 5 µM | 0.5 to 5 µM
6 | Nc1nn2cc(-c3ccncn3)cnc2c1C(=O)N1CCC[C@H]1CN1CCCC1 [Compound V-34] | 0.5 to 5 µM | > 5 µM | 0.5 to 5 µM
7 | CN1CCC(N(C)c2ccc(-c3cnc4c(-c5ccccn5)c(N)nn4c3)cn2)CC1 [Compound V-169] | < 0.5 µM | > 5 µM | < 0.5 µM
8 | Nc1nn2cc(C(=O)NCCc3ccccc3)cnc2c1-c1ccccn1 [Compound V-198] | 0.5 to 5 µM | > 5 µM | 0.5 to 5 µM
9 | COc1ccc(-c2cnc3c(-c4ccccn4)c(N)nn3c2)cn1 [Compound V-50] | < 0.5 µM | > 5 µM | 0.5 to 5 µM
10 | Cc1cnc2c(-c3cc(N4CCC(c5ccccc5)C4)ncn3)c(N)nn2c1 (stereo not drawn) [Compound V-303] | 0.5 to 5 µM | 0.5 to 5 µM | 0.5 to 5 µM
11 | Nc1nn2cc(CCCN3CCCC3)cnc2c1-c1ccccn1 [Compound V-311] | < 0.5 µM | > 5 µM | 0.5 to 5 µM
12 | Nc1ccccc1-c1cnc2c(-c3ccccn3)c(N)nn2c1 [Compound V-20] | 0.5 to 5 µM | > 5 µM | 0.5 to 5 µM
13 | CC(=O)N1CCN(c2ccc(-c3cnc4c(-c5ccccn5)c(N)nn4c3)cn2)CC1 [Compound V-149] | < 0.5 µM | 0.5 to 5 µM | 0.5 to 5 µM
14 | COC[C@H]1CCCN1c1cc(-c2c(N)nn3cc(C)cnc23)ncn1 [Compound V-302] | < 0.5 µM | 0.5 to 5 µM | < 0.5 µM
15 | CCOC(=O)c1c(N)nn2cc(-c3ccccn3)cnc12 [Compound V-25] | 0.5 to 5 µM | > 5 µM | 0.5 to 5 µM
16 | Nc1nn2cc(C(=O)NCc3cccnc3)cnc2c1-c1ccccn1 [Compound V-200] | 0.5 to 5 µM | > 5 µM | 0.5 to 5 µM
17 | Nc1nn2cc(-c3cccnc3N3CCC[C@H]3CO)cnc2c1-c1ccccn1 [Compound V-262] | 0.5 to 5 µM | > 5 µM | 0.5 to 5 µM
18 | Cc1cnc2c(-c3cc(N4CCCC(O)C4)ncn3)c(N)nn2c1 (stereo not drawn) [Compound V-342] | < 0.5 µM | 0.5 to 5 µM | 0.5 to 5 µM
19 | Cc1cnc2c(-c3cc(N4CCCC(C)C4)ncn3)c(N)nn2c1 (stereo not drawn) [Compound V-339] | < 0.5 µM | < 0.5 µM | < 0.5 µM
20 | Nc1nn2cc(N3CCCC3)cnc2c1-c1ccccn1 [Compound V-58] | < 0.5 µM | > 5 µM | 0.5 to 5 µM
21 | CN(Cc1ccccc1)C(=O)c1c(N)nn2cc(-c3ccncn3)cnc12 [Compound V-41] | 0.5 to 5 µM | > 5 µM | 0.5 to 5 µM

Row | Compound | Ki (c-Met) | Ki (JAK3) | Ki (Itk)
22 | Nc1nn2cc(CCCNC3CCC3)cnc2c1-c1ccccn1 [Compound V-324] | < 0.5 µM | > 5 µM | 0.5 to 5 µM
23 | Nc1nn2cc(-c3cccnc3N3CCCCC3)cnc2c1-c1ccccn1 [Compound V-259] | 0.5 to 5 µM | > 5 µM | 0.5 to 5 µM
24 | Nc1nn2cc(-c3ccccc3C(=O)O)cnc2c1-c1ccccn1 [Compound V-11] | 0.5 to 5 µM | > 5 µM | 0.5 to 5 µM
25 | Nc1nn2cc(-c3ccncn3)cnc2c1C(=O)N1CCC[C@H]1CO [Compound V-39] | 0.5 to 5 µM | > 5 µM | 0.5 to 5 µM
26 | CC(C)NCCCc1cnc2c(-c3ccccn3)c(N)nn2c1 [Compound V-327] | 0.5 to 5 µM | > 5 µM | 0.5 to 5 µM
27 | CN(CCC#N)C(=O)c1c(N)nn2cc(-c3ccncn3)cnc12 [Compound V-40] | 0.5 to 5 µM | > 5 µM | 0.5 to 5 µM
28 | Cc1ccc(-c2cnc3c(-c4ccccc4Br)c(N)nn3c2)cc1 [Compound V-31] | 0.5 to 5 µM | > 5 µM | 0.5 to 5 µM
29 | Nc1nn2cc(-c3ccccc3-c3ccccc3)cnc2c1-c1ccccn1 [Compound V-15] | 0.5 to 5 µM | > 5 µM | 0.5 to 5 µM
30 | Nc1nn2cc(CCCNCC3CCCO3)cnc2c1-c1ccccn1 (stereo not drawn) [Compound V-329] | < 0.5 µM | > 5 µM | 0.5 to 5 µM
31 | Nc1nn2cc(-c3ccc(N4CCC(N5CCCC5)CC4)nc3)cnc2c1-c1ccccn1 [Compound V-164] | < 0.5 µM | > 5 µM | < 0.5 µM
32 | Nc1nn2cc(-c3ccc(N4CCN(CCOCCO)CC4)nc3)cnc2c1-c1ccccn1 [Compound V-150] | < 0.5 µM | > 5 µM | < 0.5 µM
33 | CCN(CCCCN)C(=O)c1cccc(-c2cnc3c(-c4ccccn4)c(N)nn3c2)n1 [Compound V-110] | < 0.5 µM | 0.5 to 5 µM | < 0.5 µM
34 | COCCCNC(=O)c1cccc(-c2cnc3c(-c4ccccn4)c(N)nn3c2)n1 [Compound V-108] | < 0.5 µM | > 5 µM | 0.5 to 5 µM
35 | Nc1nn2cc(-c3ccncc3)cnc2c1-c1cccc(NCCC2=CCCCC2)n1 [Compound V-138] | 0.5 to 5 µM | > 5 µM | 0.5 to 5 µM
36 | Nc1nn2cc(-c3ccc(N4CCN(CCO)CC4)nc3)cnc2c1-c1ccccn1 [Compound V-148] | < 0.5 µM | 0.5 to 5 µM | < 0.5 µM
37 | Nc1nn2cc(-c3cccnc3N3CCN(CCO)CC3)cnc2c1-c1ccccn1 [Compound V-266] | 0.5 to 5 µM | > 5 µM | 0.5 to 5 µM
38 | Nc1nn2cc(-c3ccccc3OC(F)F)cnc2c1-c1ccccn1 [Compound V-19] | 0.5 to 5 µM | > 5 µM | 0.5 to 5 µM
39 | CCOC(=O)c1c(N)nn2cc(-c3cnccn3)cnc12 [Compound V-26] | 0.5 to 5 µM | > 5 µM | 0.5 to 5 µM
40 | Nc1nn2cc(-c3cccc(C(=O)N4CCC(CCO)CC4)n3)cnc2c1-c1ccccn1 [Compound V-141] | < 0.5 µM | > 5 µM | 0.5 to 5 µM
41 | Cc1cnc2c(-c3cc(N[C@H](C)C4CCCCC4)ncn3)c(N)nn2c1 [Compound V-297] | < 0.5 µM | 0.5 to 5 µM | 0.5 to 5 µM

From patent US7528138B2, “Pyrazolo[1,5-a]pyrimidines useful as inhibitors of protein kinases” (Vertex Pharmaceuticals Incorporated, priority 2004, dated 2009)
